Laboratory results taken from the NIST ThermoML archive (doi:10.1016/j.jct.2015.10.026).
± gives the expanded uncertainty stated by the source.

How the values were obtained:
[1] = 101.33 kPa, Liquid; for electrical conductivity: Direct current cell with electrodes; for mass density: Vibrating tube method
[2] = mn = molality of the nth substance listed, in mol/kg; details: 100 kPa, Liquid, Capillary tube (Ostwald / Ubbelohde) method, m2 = 0

O [water]
[1], Capillary tube (Ostwald / Ubbelohde) method
Details | viscosity [mPa·s]
293.15 K | 1.003 ± 0.021
298.15 K | 0.89 ± 0.019
303.15 K | 0.797 ± 0.017
308.15 K | 0.719 ± 0.015
313.15 K | 0.653 ± 0.014

O [water] + CCCCn1cc[n+](C)c1.NCCS(=O)(=O)[O-]
[2]
Details | viscosity [mPa·s]
293.15 K | 1.003 ± 0.021
298.15 K | 0.89 ± 0.019
303.15 K | 0.797 ± 0.017
308.15 K | 0.719 ± 0.015
313.15 K | 0.653 ± 0.014

CCCCn1cc[n+](C)c1.NCCS(=O)(=O)[O-] [1-butyl-3-methylimidazolium taurate]
[1], Cone and plate viscometry
Details | viscosity [mPa·s]
293.15 K | 1761.4 ± 130
298.15 K | 1169.2 ± 78
303.15 K | 799.87 ± 48
308.15 K | 561.88 ± 30
313.15 K | 405.34 ± 19
318.15 K | 298.26 ± 13
323.15 K | 224.97 ± 8.9

[1]
Details | electrical conductivity [S/m] | mass density [kg/m3]
293.15 K | 0.0098 ± 0.0003 | 1195.4 ± 4.9
298.15 K | 0.0161 ± 0.0005 | 1192.1 ± 4.9
303.15 K | 0.0257 ± 0.0008 | 1188.77 ± 4.9
308.15 K | 0.0356 ± 0.0011 | 1185.4 ± 4.8
313.15 K | 0.0518 ± 0.0016 | 1182.02 ± 4.8
318.15 K | 0.0697 ± 0.0021 | 1178.53 ± 4.8
323.15 K | 0.0922 ± 0.0028 | 1175.06 ± 4.7
